Experiments:
[1] = Agonist activity at human dopamine D3 receptor expressed in CHOp cells assessed as stimulation of mitogenesis incubated for 24 hrs by [3H]thymidine incorporation assay
[2] = Antagonist activity at human dopamine D2 receptor expressed in CHOp cells assessed as inhibition of quinpirol-induced mitogenesis incubated for 24 hrs by [3H]thymidine incorporation assay
[3] = Antagonist activity at human dopamine D3 receptor expressed in CHOp cells assessed as inhibition of quinpirol-induced mitogenesis incubated for 24 hrs by [3H]thymidine incorporation assay

Q: For `CCCN(CCc1ccccc1)CCc1cccc(O)c1`, which EC50 [1] is on record?
A: 0.0053 µM

Q: For `CCCCCCN(CCc1ccccc1)CCc1cccc(O)c1`, which IC50 [2] is on record?
A: 1.25 µM

Q: What does the source list for `Oc1cccc(CCN(CCc2ccccc2)CC2CCC2)c1`?
A: EC50 [1]: > 10 µM; IC50 [3]: 0.953 µM; IC50 [2]: 1.65 µM

Q: With `Oc1cccc(CCN(CCc2ccccc2)CC2CC2)c1` as the compound, how does the EC50 [1] read?
A: 0.032 µM

From BindingDB's records for doi:10.1021/jm301258w (University of Innsbruck, 2012)
